Results reported in PubChem BioAssay AID1963829 (Molecular Pharmacology Branch, DTP, NCI, 2024).

Tested on: 935938-334-R-J1-PDC complex spheroid viability
Assay: Anticancer human tumor 935938-334-R-J1-PDC patient-derived small intestine adenocarcinoma cell line growth inhibition [POLQ]
Settings: for IC50: curve of first compound; for viability, T/C: stronger effect = lower value
Procedure, shortened: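 Patient-derived tumour cells were co-cultured with HUVEC and mesenchymal stem cells as multicellular spheroids at 37 °C. They were treated with POLQ inhibitors (novobiocin, ART-558, RP6685) alone or combined with other agents. Top concentrations were at or near clinical Cmax (otherwise 10 microM; SN-38 at 1 microM), decreasing in half-log steps.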

[1] = second compound 0.0316 µM, first compound 0.00316 µM
[2] = second compound 0.0316 µM, first compound 0.01 µM
[3] = second compound 0.0316 µM, first compound 0.0316 µM
[4] = second compound 0.0316 µM, first compound 0.1 µM
[5] = second compound 0.1 µM, first compound 0.00316 µM
[6] = second compound 0.1 µM, first compound 0.01 µM
[7] = second compound 0.1 µM, first compound 0.0316 µM
[8] = second compound 0.1 µM, first compound 0.1 µM
[9] = second compound 0.316 µM, first compound 0.00316 µM
[10] = second compound 0.316 µM, first compound 0.01 µM
[11] = second compound 0.316 µM, first compound 0.0316 µM
[12] = second compound 0.316 µM, first compound 0.1 µM
[13] = second compound 1 µM, first compound 0.00316 µM
[14] = second compound 1 µM, first compound 0.01 µM
[15] = second compound 1 µM, first compound 0.0316 µM
[16] = second compound 1 µM, first compound 0.1 µM
[17] = second compound 3.16 µM, first compound 0.00316 µM
[18] = second compound 3.16 µM, first compound 0.01 µM
[19] = second compound 3.16 µM, first compound 0.0316 µM
[20] = second compound 3.16 µM, first compound 0.1 µM
[21] = second compound 10 µM, first compound 0.00316 µM
[22] = second compound 10 µM, first compound 0.01 µM
[23] = second compound 10 µM, first compound 0.0316 µM
[24] = second compound 10 µM, first compound 0.1 µM
[25] = second compound 0.0316 µM, first compound 0.316 µM
[26] = second compound 0.0316 µM, first compound 1 µM
[27] = second compound 0.1 µM, first compound 0.316 µM
[28] = second compound 0.1 µM, first compound 1 µM
[29] = second compound 0.316 µM, first compound 0.316 µM
[30] = second compound 0.316 µM, first compound 1 µM
[31] = second compound 1 µM, first compound 0.316 µM
[32] = second compound 1 µM, first compound 1 µM
[33] = second compound 3.16 µM, first compound 0.316 µM
[34] = second compound 3.16 µM, first compound 1 µM
[35] = second compound 10 µM, first compound 0.316 µM
[36] = second compound 10 µM, first compound 1 µM
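Note: spheroids exposed to drugs for seven days before viability read.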
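Throughout, for viability, T/C: 100% = DMSO vehicle control wells.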

How did the IC50 (second compound 0.0316 µM) turn out when `CC[C@@]1(O)C(=O)OCc2c1cc1n(c2=O)Cc2cc3c(CN(C)C)c(O)ccc3nc2-1` + Nc1ccc(C#CCN(C(=O)Cc2ncc(C(F)(F)F)cc2C(F)(F)F)c2ccc(F)cc2)nn1 was run?
Its IC50 is greater than 100 nM.

And the IC50 (second compound 0.1 µM)?
The IC50 was greater than 100 nM.

What about the IC50 (second compound 0.316 µM) of the same compound?
The IC50 was greater than 100 nM.

And the IC50 (second compound 1 µM)?
Its IC50 is greater than 100 nM.

What about the IC50 (second compound 3.16 µM) of the same compound?
Its IC50 is greater than 100 nM.

What about the IC50 (second compound 10 µM) of the same compound?
Its IC50 is greater than 100 nM.

What about the viability, T/C (second compound 0.0316 µM, first compound 0.000316 µM) of the same compound?
Its viability, T/C is 73.9%.

What about the viability, T/C (second compound 0.0316 µM, first compound 0.001 µM) of the same compound?
Its viability, T/C is 96.8%.

What about the viability, T/C [1] of the same compound?
Its viability, T/C is 97.6%.

And the viability, T/C [2]?
Its viability, T/C is 91.9%.

What about the viability, T/C [3] of the same compound?
Its viability, T/C is 84.3%.

And the viability, T/C [4]?
The viability, T/C was 60.2%.

And the viability, T/C (second compound 0.1 µM, first compound 0.000316 µM)?
The viability, T/C was 98.6%.

What about the viability, T/C (second compound 0.1 µM, first compound 0.001 µM) of the same compound?
Its viability, T/C is 101%.

What about the viability, T/C [5] of the same compound?
Its viability, T/C is 113%.

And the viability, T/C [6]?
Its viability, T/C is 98.1%.

And the viability, T/C [7]?
The viability, T/C was 96.7%.

And the viability, T/C [8]?
The viability, T/C was 63%.

And the viability, T/C (second compound 0.316 µM, first compound 0.000316 µM)?
Its viability, T/C is 129%.

And the viability, T/C (second compound 0.316 µM, first compound 0.001 µM)?
Its viability, T/C is 130%.

And the viability, T/C [9]?
Its viability, T/C is 99.2%.

And the viability, T/C [10]?
Its viability, T/C is 82.6%.

What about the viability, T/C [11] of the same compound?
Its viability, T/C is 87.4%.

And the viability, T/C [12]?
The viability, T/C was 57%.

And the viability, T/C (second compound 1 µM, first compound 0.000316 µM)?
Its viability, T/C is 132%.

What about the viability, T/C (second compound 1 µM, first compound 0.001 µM) of the same compound?
The viability, T/C was 117%.

What about the viability, T/C [13] of the same compound?
The viability, T/C was 77.8%.

What about the viability, T/C [14] of the same compound?
Its viability, T/C is 105%.

What about the viability, T/C [15] of the same compound?
Its viability, T/C is 86.7%.

What about the viability, T/C [16] of the same compound?
Its viability, T/C is 48%.

And the viability, T/C (second compound 3.16 µM, first compound 0.000316 µM)?
The viability, T/C was 110%.

And the viability, T/C (second compound 3.16 µM, first compound 0.001 µM)?
The viability, T/C was 110%.

What about the viability, T/C [17] of the same compound?
The viability, T/C was 96.9%.

And the viability, T/C [18]?
Its viability, T/C is 116%.

And the viability, T/C [19]?
The viability, T/C was 84%.

What about the viability, T/C [20] of the same compound?
Its viability, T/C is 65.1%.

What about the viability, T/C (second compound 10 µM, first compound 0.000316 µM) of the same compound?
Its viability, T/C is 163%.

What about the viability, T/C (second compound 10 µM, first compound 0.001 µM) of the same compound?
Its viability, T/C is 117%.

And the viability, T/C [21]?
The viability, T/C was 111%.

What about the viability, T/C [22] of the same compound?
The viability, T/C was 72.7%.

And the viability, T/C [23]?
Its viability, T/C is 103%.

What about the viability, T/C [24] of the same compound?
Its viability, T/C is 48.6%.

What does the source list for `CCc1c2c(nc3ccc(O)cc13)-c1cc3c(c(=O)n1C2)COC(=O)[C@]3(O)CC` + Nc1ccc(C#CCN(C(=O)Cc2ncc(C(F)(F)F)cc2C(F)(F)F)c2ccc(F)cc2)nn1?
IC50 (second compound 0.0316 µM): 20.2 nM; IC50 (second compound 0.1 µM): 17.1 nM; IC50 (second compound 0.316 µM): 18.3 nM; IC50 (second compound 1 µM): 22.3 nM; IC50 (second compound 3.16 µM): 15.1 nM; IC50 (second compound 10 µM): 22.1 nM; viability, T/C [1]: 83.8%; viability, T/C [2]: 61.7%; viability, T/C [3]: 44.2%; viability, T/C [4]: 28.6%; viability, T/C [25]: 31.6%; viability, T/C [26]: 29.2%; viability, T/C [5]: 93.6%; viability, T/C [6]: 64.3%; viability, T/C [7]: 33.8%; viability, T/C [8]: 29.6%; viability, T/C [27]: 34.7%; viability, T/C [28]: 32%; viability, T/C [9]: 108%; viability, T/C [10]: 65.8%; viability, T/C [11]: 35.1%; viability, T/C [12]: 36.2%; viability, T/C [29]: 30.6%; viability, T/C [30]: 28.9%; viability, T/C [13]: 109%; viability, T/C [14]: 81.8%; viability, T/C [15]: 36.1%; viability, T/C [16]: 32.6%; viability, T/C [31]: 34.4%; viability, T/C [32]: 30.1%; viability, T/C [17]: 93.2%; viability, T/C [18]: 51.8%; viability, T/C [19]: 43.9%; viability, T/C [20]: 40.4%; viability, T/C [33]: 30.8%; viability, T/C [34]: 30.6%; viability, T/C [21]: 88.8%; viability, T/C [22]: 67.9%; viability, T/C [23]: 41%; viability, T/C [24]: 37.3%; viability, T/C [35]: 31%; viability, T/C [36]: 32.2%

How did the IC50 (second compound 0.0316 µM) turn out when `CNCc1ccc(-c2[nH]c3cc(F)cc4c3c2CCNC4=O)cc1` + Nc1ccc(C#CCN(C(=O)Cc2ncc(C(F)(F)F)cc2C(F)(F)F)c2ccc(F)cc2)nn1 was run?
Its IC50 is greater than 10000 nM.

What about the IC50 (second compound 0.1 µM) of the same compound?
Its IC50 is greater than 10000 nM.

What about the IC50 (second compound 0.316 µM) of the same compound?
Its IC50 is greater than 10000 nM.

What about the IC50 (second compound 1 µM) of the same compound?
The IC50 was greater than 10000 nM.

And the IC50 (second compound 3.16 µM)?
Its IC50 is greater than 10000 nM.

What about the IC50 (second compound 10 µM) of the same compound?
The IC50 was greater than 10000 nM.

What about the viability, T/C [3] of the same compound?
The viability, T/C was 96.6%.

What about the viability, T/C [4] of the same compound?
The viability, T/C was 104%.

What about the viability, T/C [25] of the same compound?
Its viability, T/C is 105%.

What about the viability, T/C [26] of the same compound?
Its viability, T/C is 77.2%.

What about the viability, T/C (second compound 0.0316 µM, first compound 3.16 µM) of the same compound?
The viability, T/C was 80%.

What about the viability, T/C (second compound 0.0316 µM, first compound 10 µM) of the same compound?
Its viability, T/C is 96.1%.

And the viability, T/C [7]?
Its viability, T/C is 85.8%.

What about the viability, T/C [8] of the same compound?
The viability, T/C was 80.5%.

What about the viability, T/C [27] of the same compound?
Its viability, T/C is 112%.

And the viability, T/C [28]?
The viability, T/C was 91.8%.

And the viability, T/C (second compound 0.1 µM, first compound 3.16 µM)?
Its viability, T/C is 100%.

And the viability, T/C (second compound 0.1 µM, first compound 10 µM)?
The viability, T/C was 96.5%.

What about the viability, T/C [11] of the same compound?
The viability, T/C was 126%.

What about the viability, T/C [12] of the same compound?
Its viability, T/C is 102%.

What about the viability, T/C [29] of the same compound?
Its viability, T/C is 110%.

And the viability, T/C [30]?
The viability, T/C was 95.7%.

What about the viability, T/C (second compound 0.316 µM, first compound 3.16 µM) of the same compound?
Its viability, T/C is 107%.

And the viability, T/C (second compound 0.316 µM, first compound 10 µM)?
Its viability, T/C is 89.2%.

And the viability, T/C [15]?
Its viability, T/C is 77.2%.

What about the viability, T/C [16] of the same compound?
The viability, T/C was 78.2%.

And the viability, T/C [31]?
Its viability, T/C is 121%.

What about the viability, T/C [32] of the same compound?
Its viability, T/C is 86.7%.

What about the viability, T/C (second compound 1 µM, first compound 3.16 µM) of the same compound?
The viability, T/C was 111%.

And the viability, T/C (second compound 1 µM, first compound 10 µM)?
Its viability, T/C is 127%.

What about the viability, T/C [19] of the same compound?
The viability, T/C was 109%.

And the viability, T/C [20]?
Its viability, T/C is 79%.

What about the viability, T/C [33] of the same compound?
Its viability, T/C is 110%.

And the viability, T/C [34]?
Its viability, T/C is 106%.

And the viability, T/C (second compound 3.16 µM, first compound 3.16 µM)?
The viability, T/C was 75%.

What about the viability, T/C (second compound 3.16 µM, first compound 10 µM) of the same compound?
The viability, T/C was 104%.

And the viability, T/C [23]?
The viability, T/C was 111%.

What about the viability, T/C [24] of the same compound?
The viability, T/C was 99.5%.

And the viability, T/C [35]?
The viability, T/C was 107%.

What about the viability, T/C [36] of the same compound?
Its viability, T/C is 116%.

What about the viability, T/C (second compound 10 µM, first compound 3.16 µM) of the same compound?
Its viability, T/C is 106%.

What about the viability, T/C (second compound 10 µM, first compound 10 µM) of the same compound?
The viability, T/C was 130%.
